For series [1], the target named is T1, human red blood cell acetylcholinesterase (RBC AChE) (Homo sapiens, UniProt P22303).
T1 construct: from tissue; host or cells: whole blood (hemolyzed, 1:100 in Triton X-100) from one healthy adult volunteer
As to the kind of experiment: Human RBC AChE inhibition assay (Ellman method, hemolyzed whole blood). Format: biochemical. The conditions noted are these: for pIC50: hemolyzed samples preincubated with compound for 15 min at 37 °C, three independent experiments in duplicate. The procedure: RBC AChE and BuChE assays were performed on whole human blood and serum, respectively. In this study, all methods were conducted in accordance with guidelines and regulations to comply with the GLP and chemical wastes management established by the Cinvestav-IPN. The sampling protocol was approved by the Bioethics Commission of Nayarit State, Mexico (CEBN/011/2017). The subject gave written informed consent for their participation and blood samples were collected early in the morning. A human blood sample was collected from a healthy adult volunteer from Mexico City.
RBC AChE activity was evaluated according to the method reported by Ellman et al.[12] with some modifications. Briefly, fresh human whole blood samples were diluted (1:100) with Triton X-100 (0.03% in phosphate buffer 0.1 M, pH 7.4). The enzymatic assay media consisted of 500 µL diluted blood, 1 mL of phosphate buffer 0.1 M, pH 7.4, 0.05 mL of DTNB (10 mM), and 5 µL of ethopropazine (6 mM), which were mixed and incubated at 37 °C for 10 min. The reaction was started by the addition of 25 µL of substrate ATCh (28.3 mM) and absorbance was monitored at 436 nm during 3 min with a UV-Vis spectrophotometer (Thermo Scientific GENESYS 10S). AChE activity was corrected for hemoglobin (Hb) content and was reported in U/g Hb. The Hb content was determined at 540 nm using the Drabkin reagent. The molar extinction coefficient of the TNB hydrolysis product was ε = 10,600 M^−1 cm^−1.
To determine the inhibitory effect on human RBC AChE activity, the hemolyzed samples were preincubated with Tem and its metabolites for 15 min at 37 °C. The RBC AChE activity was evaluated as previously described by Bernal-Hernández et al.[13] in three independent experiments conducted in duplicate. Stock solutions of Tem metabolites were individually prepared in ethanol (Tem-SO, 4.14 mM; Tem-dox-SO, 4.44 mM, and Tem-dox-SO2, 4.20 mM). These solutions were used to prepare other diluted solutions in phosphate buffer (0.1 M, pH 7.4) to achieve the following concentrations: 0.1 to 10 μM Tem-SO, 0.05 to 5 μM Tem-dox-SO, and 0.02 to 2 μM Tem-dox-SO2. […] Log IC50, IC50, and R^2 values were estimated from the normalized AChE or BuChE activity with respect to the control assays (absence of the metabolite) and plotted as a function of the logarithm of metabolite concentration using Prism 8 software (GraphPad Software).

For series [2] the following is noted: rats, orally administered; cited from earlier work.

One may read the pIC50 as the negative decadic logarithm of the IC50, by convention in mol/L.

pIC50: −log10 of the molar value.

T1 sequence (P22303 32-617 isoform P22303-2 limits assumed): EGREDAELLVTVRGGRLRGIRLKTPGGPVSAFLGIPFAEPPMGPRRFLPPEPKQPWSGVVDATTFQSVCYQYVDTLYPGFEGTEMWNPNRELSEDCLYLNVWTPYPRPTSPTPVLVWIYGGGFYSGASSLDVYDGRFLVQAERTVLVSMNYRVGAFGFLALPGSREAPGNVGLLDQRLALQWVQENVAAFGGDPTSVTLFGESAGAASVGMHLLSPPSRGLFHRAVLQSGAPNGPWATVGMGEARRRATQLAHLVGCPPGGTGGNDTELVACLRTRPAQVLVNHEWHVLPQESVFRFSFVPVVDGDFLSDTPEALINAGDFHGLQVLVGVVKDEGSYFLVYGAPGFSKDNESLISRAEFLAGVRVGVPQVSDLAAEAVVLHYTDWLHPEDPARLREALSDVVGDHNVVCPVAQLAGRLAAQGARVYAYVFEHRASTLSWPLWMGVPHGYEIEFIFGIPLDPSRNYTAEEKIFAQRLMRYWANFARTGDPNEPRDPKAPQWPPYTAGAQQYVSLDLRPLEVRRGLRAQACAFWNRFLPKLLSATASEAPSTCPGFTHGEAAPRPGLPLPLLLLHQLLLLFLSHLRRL

For `COP(=S)(OC)Oc1ccc(Sc2ccc(OP(=S)(OC)OC)cc2)cc1` [Tem, O,O,O′,O′-tetramethyl O,O′-thiodi-p-phenylene bis(phosphorothionate)], the “effect on human RBC AChE activity” value in series [1] (even at higher concentrations than 50 µM) is listed as “did not exhibit any effect”. Further, the “absorbed into the bloodstream” value in series [2] is given as “at least 40%”. Consider `COP(=O)(OC)Oc1ccc(S(=O)(=O)c2ccc(OP(=O)(OC)OC)cc2)cc1` [Tem-dox-SO2], for which the negative logarithm of the IC50 (pIC50) in series [1] is 7.60. The same measure, in the same setting: the figure for `COP(=S)(OC)Oc1ccc([S+]([O-])c2ccc(OP(=S)(OC)OC)cc2)cc1` [Tem-SO] is 6.26; for `COP(=O)(OC)Oc1ccc([S+]([O-])c2ccc(OP(=O)(OC)OC)cc2)cc1` [Tem-dox-SO] it is 7.01.
